# Reference: article PMC8501799, “Constitutive signal bias mediated by the human GHRHR splice variant 1” (Proceedings of the National Academy of Sciences of the …, 2021)
# Tests used:
# SV1/Gs = experiment: Gs activation (G protein NanoBiT assay); format: cell-based, human; settings: HEK293T
# Description: HEK293T cells were seeded at a density of 30,000 cells per well into 96-well culture plates pretreated with poly-D-lysine hydrobromide. After incubation for 24 h to reach 70% to 80% confluence, the cells were transiently transfected with GHRHR or SV1, Gαs-LgBiT, Gβ1, and Gγ2-SmBiT, at a 2:1:5:5 mass ratio. Twenty-four hours after transfection, cells were washed once and incubated for 30 min at 37 °C with HBSS buffer (pH 7.4) supplemented with 0.1% BSA and 10 mM HEPES. They were then reacted with coelenterazine H (5 μM) for 1 h at RT. Luminescence signals were measured using an Envision plate reader at 15-s intervals (25 °C). […] Data were corrected to baseline and vehicle-treated samples.
# (§1) All functional study data were analyzed using Prism 7 (GraphPad) and presented as means ± SEM from at least three independent experiments. Concentration-response curves were evaluated with a three-parameter logistic equation. The significance was determined with either two-tailed Student’s t test or one-way ANOVA, and P < 0.05 is considered statistically significant.
# Table S1. Effects of SV1 on GHRH-induced Gs activation.
# Plasmid pEC50 Emax (% WT GHRHR)
# G protein NanoBiT data were analyzed using a three-parameter logistic equation to d et ermine pEC50 and Emax values. pEC50 is the negative logarithm of the molar concentration of agonist that induced half the maximal response. Emax is expressed as a percentage of GHRHR/Gs response.
# All values are means ± S.E.M. of five independent experiments (n = 5) conducted in duplicate. One-way ANOVA was used to determine statistical significance (*P < 0.05). WT, wild-type; NA, not
# GHRHR Δ82 = target: T1, GHRHR Δ82 (Homo sapiens, UniProt Q02643); experiment: cAMP accumulation; format: cell-based; settings: Table S2, mean ± SEM
# T1 construct: expressed in transfected cells; host or cells: HEK293T
# T1 sequence (Q02643 83-423 limits assumed, stated change not applied): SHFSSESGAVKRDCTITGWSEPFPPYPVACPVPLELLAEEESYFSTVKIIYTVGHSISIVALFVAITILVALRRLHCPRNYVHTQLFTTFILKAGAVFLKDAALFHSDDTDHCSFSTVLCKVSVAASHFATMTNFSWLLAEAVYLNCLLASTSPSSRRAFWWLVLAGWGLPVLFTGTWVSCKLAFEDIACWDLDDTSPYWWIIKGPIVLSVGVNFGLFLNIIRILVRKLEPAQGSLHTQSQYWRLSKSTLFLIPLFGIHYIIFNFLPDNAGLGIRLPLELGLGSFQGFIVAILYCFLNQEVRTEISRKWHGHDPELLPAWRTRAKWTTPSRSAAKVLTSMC
# Description: (§2) GHRH-stimulated cAMP accumulation was measured by a LANCE Ultra cAMP kit (PerkinElmer). Briefly, HEK293T cells (24 h after transfection with SV1 or GHRHR) or prostate cancer cells were digested by 0.2% (wt/vol) EDTA and washed once with Dulbecco’s phosphate-buffered saline (PBS). Cells were then resuspended with stimulation buffer (Hanks’ balanced salt solution [HBSS] supplemented with 5 mM HEPES, 0.5 mM IBMX, and 0.1% [wt/vol] bovine serum albumin [BSA], pH 7.4) to a density of 0.6 million cells per milliliter and added to 384-well white plates (3,000 cells per well). […] The reaction was stopped by adding 5 μL Eu-cAMP tracer and 5 μL ULight-anti-cAMP. After 1 h RT incubation, TR-FRET signals (excitation: 320 nm, emission: 615 and 665 nm) were measured by an Envision plate reader (PerkinElmer). cAMP concentrations were interpolated by a standard curve.
# as §1
# (§3) Table S2. Effects of residue mutation or truncation in the ECD of GHRHR on GHRH-induced cAMP […]
# (§4) Mutant pEC50 Emax (% WT GHRHR) expression ΔLog (τ/KA) […]
# (§5) cAMP accumulation data were analyzed using a three-parameter logistic equation to determine pEC50 and Emax values. pEC50 is the negative logarithm of the molar concentration of agonist that induced half the maximal response. Emax for mutants is expressed as a percentage of the WT GHRHR. Data were analyzed by nonlinear regression using the operational model equation to determine t he logR values (logτ/KA, i.e., logarithm of the transduction ratio). τ is the effi cacy value of the agonist and was corrected by cell surface expression of the receptor. KA is dissociation constant. Changes in transduction ratio (ΔlogR) were calculated to determine the relative effectiveness of the mutants. All values are means ± S.E.M. of at le ast three ind ep en dent experiments (n = 3-5) conducted in quadruplicate. Statistical analysis was carried out by comparing the control responses in the WT GHRHR. **, P < 0.01 and ***, P < 0.001, determined by one-way
# GHRHR F82A = target: T2, GHRHR F82A (Homo sapiens, UniProt Q02643, F82A); experiment: cAMP accumulation; format: cell-based; settings: Table S2, mean ± SEM
# T2 construct: expressed in transfected cells; host or cells: HEK293T
# T2 sequence (Q02643 23-423 F82A): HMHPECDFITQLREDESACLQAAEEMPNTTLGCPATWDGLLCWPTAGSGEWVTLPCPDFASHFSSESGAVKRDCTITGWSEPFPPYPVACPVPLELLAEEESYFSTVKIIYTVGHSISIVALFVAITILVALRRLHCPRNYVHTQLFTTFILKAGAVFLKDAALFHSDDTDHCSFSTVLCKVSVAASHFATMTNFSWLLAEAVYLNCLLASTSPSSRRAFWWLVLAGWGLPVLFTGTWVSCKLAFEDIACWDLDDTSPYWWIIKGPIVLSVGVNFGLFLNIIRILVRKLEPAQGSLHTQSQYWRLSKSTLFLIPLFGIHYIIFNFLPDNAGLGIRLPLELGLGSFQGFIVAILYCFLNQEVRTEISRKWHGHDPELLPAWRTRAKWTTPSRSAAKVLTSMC
# Description: as §2, §1, §3, §4, §5
# GHRHR Δ42 = target: T3, GHRHR Δ42 (Homo sapiens, UniProt Q02643); experiment: cAMP accumulation; format: cell-based; settings: Table S2, mean ± SEM
# T3 construct: expressed in transfected cells; host or cells: HEK293T
# T3 sequence (Q02643 43-423 limits assumed, stated change not applied): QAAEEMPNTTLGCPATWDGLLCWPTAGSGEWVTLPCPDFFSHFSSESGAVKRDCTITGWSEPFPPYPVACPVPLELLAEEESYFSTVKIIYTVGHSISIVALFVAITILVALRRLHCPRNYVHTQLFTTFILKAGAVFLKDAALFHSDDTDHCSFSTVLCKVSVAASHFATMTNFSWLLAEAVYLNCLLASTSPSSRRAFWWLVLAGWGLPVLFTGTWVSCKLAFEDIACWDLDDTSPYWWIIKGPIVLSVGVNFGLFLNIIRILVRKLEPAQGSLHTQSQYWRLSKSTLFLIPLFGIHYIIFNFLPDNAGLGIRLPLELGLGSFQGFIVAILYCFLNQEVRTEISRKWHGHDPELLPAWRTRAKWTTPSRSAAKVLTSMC
# Description: as §2, §1, §3, §4, §5
# GHRHR Δ92 = target: T4, GHRHR Δ92 (Homo sapiens, UniProt Q02643); experiment: cAMP accumulation; format: cell-based; settings: Table S2, mean ± SEM
# T4 construct: expressed in transfected cells; host or cells: HEK293T
# T4 sequence (Q02643 93-423 limits assumed, stated change not applied): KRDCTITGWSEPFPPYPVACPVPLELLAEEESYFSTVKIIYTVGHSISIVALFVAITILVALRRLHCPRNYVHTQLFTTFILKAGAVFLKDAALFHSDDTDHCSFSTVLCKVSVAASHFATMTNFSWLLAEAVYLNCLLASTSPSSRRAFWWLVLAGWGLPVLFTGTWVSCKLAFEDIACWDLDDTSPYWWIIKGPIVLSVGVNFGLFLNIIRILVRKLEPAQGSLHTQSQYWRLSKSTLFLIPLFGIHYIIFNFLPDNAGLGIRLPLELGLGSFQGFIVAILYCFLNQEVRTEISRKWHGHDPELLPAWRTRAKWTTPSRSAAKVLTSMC
# Description: as §2, §1, §3, §4, §5
# [1] = target: T5, GHRHR L34A-L62A-F82A-F85A (Homo sapiens, UniProt Q02643, F82A/F85A/L34A/L62A); experiment: cAMP accumulation; format: cell-based; settings: Table S2, mean ± SEM
# T5 construct: expressed in transfected cells; host or cells: HEK293T
# T5 sequence (Q02643 23-423 L34A/L62A/F82A/F85A): as the sequence (Q02643 23-423 F82A) above, with L12A, L40A, F63A counted along it
# Description: as §2, §1, §3, §4, §5
# GHRHR F85A = target: T6, GHRHR F85A (Homo sapiens, UniProt Q02643, F85A); experiment: cAMP accumulation; format: cell-based; settings: Table S2, mean ± SEM
# T6 construct: expressed in transfected cells; host or cells: HEK293T
# T6 sequence (Q02643 23-423 F85A): as the sequence (Q02643 23-423 F82A) above, with A60F, F63A counted along it
# Description: as §2, §1, §3, §4, §5
# GHRHR Δ72 = target: T7, GHRHR Δ72 (Homo sapiens, UniProt Q02643); experiment: cAMP accumulation; format: cell-based; settings: Table S2, mean ± SEM
# T7 construct: expressed in transfected cells; host or cells: HEK293T
# T7 sequence (Q02643 73-423 limits assumed, stated change not applied): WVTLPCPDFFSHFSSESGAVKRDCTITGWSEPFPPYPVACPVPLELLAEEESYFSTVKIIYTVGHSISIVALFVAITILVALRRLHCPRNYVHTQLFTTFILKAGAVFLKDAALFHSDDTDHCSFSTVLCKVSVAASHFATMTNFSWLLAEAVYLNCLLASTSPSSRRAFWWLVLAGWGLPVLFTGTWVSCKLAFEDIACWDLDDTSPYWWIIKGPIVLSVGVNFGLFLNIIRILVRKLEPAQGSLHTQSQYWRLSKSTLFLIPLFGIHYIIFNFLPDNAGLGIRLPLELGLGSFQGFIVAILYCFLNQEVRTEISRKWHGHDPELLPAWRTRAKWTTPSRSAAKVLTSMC
# Description: as §2, §1, §3, §4, §5
# GHRHR L62A = target: T8, GHRHR L62A (Homo sapiens, UniProt Q02643, L62A); experiment: cAMP accumulation; format: cell-based; settings: Table S2, mean ± SEM
# T8 construct: expressed in transfected cells; host or cells: HEK293T
# T8 sequence (Q02643 23-423 L62A): as the sequence (Q02643 23-423 F82A) above, with L40A, A60F counted along it
# Description: as §2, §1, §3, §4, §5
# PC3 cells = experiment: cAMP accumulation in prostate cancer cells; format: cell-based, human; settings: concentration-response, Fig. 1E; PC3 low expression of both
# Description: (§6) Spodoptera frugiperda (Sf9) insect cells (Expression Systems) were grown in ESF 921 serum-free medium (Expression Systems) at 27 °C and 120 rpm. HEK293T cells were purchased from American Type Culture Collection (ATCC), cultured in Dulbecco’s modified Eagle’s medium (DMEM; Life Technologies), supplemented with 10% fetal bovine serum (FBS; Gibco), and maintained in a humidified chamber with 5% CO2 at 37 °C. The PC3 prostate cancer cell line (ATCC) was cultured in F12 medium supplemented with 10% FBS and maintained in a humidified chamber with 5% CO2 at 37 °C. 22Rv1 and LNCaP human prostate cancer cells (ATCC) were cultured in Roswell Park Memorial Institute (RPMI)-1640 medium supplemented with 10% FBS and maintained in a humidified atmosphere containing 5% CO2 at 37 °C.
# as §2
# 22Rv1 cells = experiment: cAMP accumulation in prostate cancer cells; format: cell-based, human; settings: concentration-response, Fig. 1E; 22Rv1 express high levels of SV1
# Description: as §6, §2
# LNCaP cells = experiment: cAMP accumulation in prostate cancer cells; format: cell-based, human; settings: concentration-response, Fig. 1E; LNCaP express high levels of GHRHR
# Description: as §6, §2
# [2] = HEK-293T, HEK293T, n = 3-5 in quadruplicate
# [3] = operational model, τ corrected by cell surface expression, relative to WT GHRHR
structure (smiles),measurement,setting,value
"CC[C@H](C)[C@H](NC(=O)[C@H](C)NC(=O)[C@H](CC(=O)O)NC(=O)[C@H](C)NC(=O)[C@@H](N)Cc1ccc(O)cc1)C(=O)N[C@@H](Cc1ccccc1)C(=O)N[C@H](C(=O)N[C@@H](CC(N)=O)C(=O)N[C@@H](CO)C(=O)N[C@@H](Cc1ccc(O)cc1)C(=O)N[C@@H](CCCNC(=N)N)C(=O)N[C@@H](CCCCN)C(=O)N[C@H](C(=O)N[C@@H](CC(C)C)C(=O)NCC(=O)N[C@@H](CCC(N)=O)C(=O)N[C@@H](CC(C)C)C(=O)N[C@@H](CO)C(=O)N[C@@H](C)C(=O)N[C@@H](CCCNC(=N)N)C(=O)N[C@@H](CCCCN)C(=O)N[C@@H](CC(C)C)C(=O)N[C@@H](CC(C)C)C(=O)N[C@@H](CCC(N)=O)C(=O)N[C@@H](CC(=O)O)C(=O)N[C@H](C(=O)N[C@@H](CCSC)C(=O)N[C@@H](CO)C(=O)N[C@@H](CCCNC(=N)N)C(=O)N[C@@H](CCC(N)=O)C(=O)N[C@@H](CCC(N)=O)C(=O)NCC(=O)N[C@@H](CCC(=O)O)C(=O)N[C@@H](CO)C(=O)N[C@@H](CC(N)=O)C(=O)N[C@@H](CCC(N)=O)C(=O)N[C@@H](CCC(=O)O)C(=O)N[C@@H](CCCNC(=N)N)C(=O)NCC(=O)N[C@@H](C)C(=O)N[C@@H](CCCNC(=N)N)C(=O)N[C@@H](C)C(=O)N[C@@H](CCCNC(=N)N)C(=O)N[C@@H](CC(C)C)C(N)=O)[C@@H](C)CC)C(C)C)[C@@H](C)O [GHRH, growth hormone–releasing hormone]",Emax of Gs activation,"SV1/Gs; AUC 0 to 25 min, mean ± SEM, n = 5 in duplicate, * P < 0.05",56.67 ± 13.79 % WT GHRHR
same,pEC50 of Gs activation,"SV1/Gs; AUC 0 to 25 min, three-parameter logistic, mean ± SEM, n = 5 in duplicate, * P < 0.05",5.63 ± 0.36
same,ability of SV1 to activate Gs,"SV1/Gs; compared with GHRHR, Fig. 1A",significantly impaired
same,Emax,GHRHR Δ82; [2],104 ± 2.51%
same,ΔLog (τ/KA),GHRHR Δ82; [3],-3.14 ± 0.03
same,Emax,GHRHR F82A; [2],99.8 ± 1.36%
same,ΔLog (τ/KA),GHRHR F82A; [3],-0.53 ± 0.05
same,Emax,GHRHR Δ42; [2],104 ± 1.53%
same,ΔLog (τ/KA),GHRHR Δ42; [3],-2.86 ± 0.02
same,Emax,GHRHR Δ92; [2],106 ± 2.38%
same,ΔLog (τ/KA),GHRHR Δ92; [3],-3.78 ± 0.03
same,Emax,[1]; [2],105 ± 5.52%
same,ΔLog (τ/KA),[1]; [3],-4.07 ± 0.04
same,Emax,GHRHR F85A; [2],100 ± 1.69%
same,ΔLog (τ/KA),GHRHR F85A; [3],-0.27 ± 0.04
same,Emax,GHRHR Δ72; [2],104 ± 2.57%
same,ΔLog (τ/KA),GHRHR Δ72; [3],-2.98 ± 0.04
same,Emax,GHRHR L62A; [2],98 ± 2%
same,ΔLog (τ/KA),GHRHR L62A; [3],-1.03 ± 0.04
same,cAMP response,PC3 cells,either markedly reduced or marginal cAMP responses
same,cAMP response,22Rv1 cells,either markedly reduced or marginal cAMP responses
same,cAMP response,LNCaP cells,strongest cAMP response
